The subject of assay [1] is RGCs. The assay is described as follows: Retrograde Fluoro-Gold labeling of RGCs and RGC densities after optic nerve crush. Format: in vivo, Wistar rats. The note with it: two weeks after ON crush. On the procedure:
(§1) Forty five adult male Wistar rats weighing 150-180 g (7-8 weeks old) were used and grouped (Table 1). All manipulations were performed with animals under general anesthesia induced by an intramuscular injection of a mixture of ketamine (40 mg/kg body weight (BW)) and xylazine (4 mg/kg BW). In addition, topical 0.5% Alcaine eye drops (Alcon, Puurs, Belgium) were used to perform topical anesthesia.
(§2) After general anesthesia and topical Alcaine eye drop application, the ON was exposed and isolated. Care was taken to avoid damaging the small vessels around the ON. A vascular clip (60 g micro-vascular clip) was then applied to the ON 2 mm posterior to the globe for 30 seconds. After the surgery, Tobradex eye ointment (Alcon, Puurs, Belgium) was administered. The rats were kept on electric heating pads at 37° C. for recovery. The control group received a sham operation that entailed ON exposure without the crush. 4-PSB-2 (5 mg/kg in 0.2 mL phosphate-buffered saline) or phosphate buffered saline (PBS control) was immediately administered after ON crush once by subcutaneous injection.
With this technique, only the RGCs with intact axons projected to the SC were labeled with FG. The procedure was performed based on Chang et al (Exp. Eye Res., 2004, 118, 109-116). Briefly, one week before sacrificing, the rats were anesthetized using a ketamine (100 mg/kg) and Xylazine (10 mg/kg) mixture, and then placed in a stereotactic apparatus. […] One week after labeling, the eyeballs were harvested after euthanasia of the animals. The eyeballs were placed in 10% formalin and iii the whole retina was then carefully dissected, flattened. The retina was examined with a 400× epi-fluorescence microscope equipped with a filter set (excitation filter=350-400 nm; barrier filter=515 nm), as well as a digital camera and software. The retinas were examined for RGCs at a distance of 1 or 3 mm from the optic nerve head in order to provide the central and mid-peripheral RGC densities respectively (FIG. 1A). RGCs were counted in eight areas randomly of […]/each in the central (about 40% of the central area) (FIG. 1B), and eight areas randomly of 38,250 mm^2/each in the mid-peripheral (about 30% of the mid-periphery) regions of each retina. The averages of these areas were taken as the mean density of RGCs per retina. RGC survival percentage was defined as the number of RGCs in each treatment group divided by the number of RGCs in the sham operated retina, multiplied by 100.

Assay [2] has as its system Wistar rats. The assay is described as follows: Flash visual-evoked potentials (FVEPs) after optic nerve crush. Format: in vivo. The following applies: 2 weeks after ON crush; 5 mg/kg s.c. once; n=6; sham 83±3 ms, PBS 154±23 ms. On the procedure: as §1, §2
For the functional evaluation of the ON, FVEPs were recorded 2 weeks after ON crush in 18 experimental rats. […]

For assay [3], the system named is RGC layer. The assay is described as follows: TUNEL assay in retinal sections after optic nerve crush. The note with it: RGC layer of retina; two weeks after ON crush; 5 mg/kg s.c. once; n=6; sham 2.0±1.7, PBS 14.8±6.5. Format: in vivo, Wistar rats. On the procedure: as §1
After general anesthesia and topical Alcaine eye drop application, the ON was exposed and isolated. Care was taken to avoid damaging the small vessels around the ON. A vascular clip (60 g micro-vascular clip) was then applied to the ON 2 mm posterior to the globe for 30 seconds. After the surgery, Tobradex eye ointment (Alcon, Puurs, Belgium) was administered. The rats were kept on electric heating pads at 37° C. for recovery. The control group received a sham operation that entailed ON exposure without the crush. […]
To ensure the use of equivalent fields for comparison, all retinal frozen sections were prepared with retinas at 1-2 mm distance from the optic nerve head. […] The TUNEL positive cells in the RGC layer of each sample were counted in ten high powered fields (HPF, ×400 magnification), and three sections per eye were averaged.

Assay [4] relates to ED1 (CD68, a marker of macrophage/microglia). As to the kind of experiment: Immunohistochemistry of ED1 in the ONs after optic nerve crush. The note with it: lesion site of ON; two weeks after ON crush; 5 mg/kg s.c. once; n=6; sham 4.3±2.5, PBS 67.3±21.1. Format: in vivo, Wistar rats. As for the experimental part:
as §1
(§3) After general anesthesia and topical Alcaine eye drop application, the ON was exposed and isolated. Care was taken to avoid damaging the small vessels around the ON. A vascular clip (60 g micro-vascular clip) was then applied to the ON 2 mm posterior to the globe for 30 seconds. After the surgery, Tobradex eye ointment (Alcon, Puurs, Belgium) was administered. The rats were kept on electric heating pads at 37° C. for recovery. […]
(§4) IHC of ED1 (CD68, a marker of macrophage/microglia) in the ONs and IHC of CD11b, iNOS and COX-2 in the retina using monoclonal antibodies (ED1, 1:50; CD11b, 1:20; AbD Serotec, Oxford, UK) or polyclonal antibodies (iNOS, 1:50; Cell signaling Inc. Beverly, Mass., USA; COX-2, 1:50; Santa Cruz, Calif., USA) were performed. […] For comparison, ED1 positive cells were counted in six HPF at the lesion site of ON (six rats in each group). Cd11b positive cells were counted in six HPF and three sections per eye were averaged.

Assay [5] concerns Cd11b. The assay is described as follows: Immunohistochemistry of Cd11b in the retina after optic nerve crush. Format: in vivo, Wistar rats. The following applies: two weeks after ON crush, 5 mg/kg s.c. once, n=6, sham 2.3±1.7, PBS 40.0±9.7. As for the experimental part:
as §1, §3, §4

Assay [6] concerns iNOS. The assay is described as follows: Immunoblotting and immunohistochemical analysis of iNOS expression in the retina after ON crush. Format: in vivo, Wistar rats. The following applies: two weeks after ON crush, 5 mg/kg s.c. once, ratio to GAPDH, n=3, result in words. As for the experimental part: as §1, §3
(§5) IHC of ED1 (CD68, a marker of macrophage/microglia) in the ONs and IHC of CD11b, iNOS and COX-2 in the retina using monoclonal antibodies (ED1, 1:50; CD11b, 1:20; AbD Serotec, Oxford, UK) or polyclonal antibodies (iNOS, 1:50; Cell signaling Inc. Beverly, Mass., USA; COX-2, 1:50; Santa Cruz, Calif., USA) were performed. […] For comparison, ED1 positive cells were counted in six HPF at the lesion site of ON (six rats in each group). Cd11b positive cells were counted in six HPF and three sections per eye were averaged. […]

For assay [7], the system named is COX-2. As to the kind of experiment: Immunoblotting and immunohistochemical analysis of COX-2 expression in the retina after ON crush. The note with it: two weeks after ON crush, 5 mg/kg s.c. once, ratio to GAPDH, n=3, result in words. Format: in vivo, Wistar rats. On the procedure: as §1, §3, §5
For orientation: Immunoblotting shows a protein as a band on a membrane.

For `CC(=O)CCSc1ccccc1` [4-PSB-2, 4-(phenylsulfanyl)butan-2-one], the “densities of RGCs in the central retina” value in assay [1] (central retina, 5 mg/kg once by subcutaneous injection immediately after crush, n=6) is 1342±473 /mm^2. Further, in assay [1] (central retina, relative to sham operated retina, 5 mg/kg s.c. once), the “RGC survival, central retina” value was found to be 56.8 % survival. In addition, the “RGC survival rate increase as compared to the PBS-treated group, central retina” value in assay [1] (central retina, vs PBS-treated group, p<0.05) is “approximately 35.7%”. Further, the “densities of RGCs in mid-peripheral retina” value in assay [1] (mid-peripheral retina, 5 mg/kg once by subcutaneous injection immediately after crush, n=6) is 915±244 /mm^2. Further, the “RGC survival, mid-peripheral retina” value in assay [1] (mid-peripheral retina, relative to sham operated retina, 5 mg/kg s.c. once) was determined as 65.3 % survival. In addition, the “RGC survival rate increase as compared to the PBS-treated group, mid-peripheral retina” value in assay [1] (mid-peripheral retina, vs PBS-treated group, p<0.05) was ~35.3%. For the same compound, the “latency of the P1 wave (FVEP)” value in assay [2] worked out at 118 ± 14 ms. Besides, in assay [3], the “TUNEL positive cells in the RGC layer” value is 6.7±3.4 positive cells/HPG. Moreover, the “ED1 positive cells/HPF” value in assay [4] stood at 33.5±14.5 positive cells/HPF. For the same compound, in assay [5], the “Cd11b positive cells/HPF” value came to 17.3±5.9 positive cells/HPF. In addition, the “iNOS expression in the retina” value in assay [6] is recorded as “prevented the increase”. Besides, the “COX-2 expression in the retina” value in assay [7] is reported as “prevented the increase”.
